# Laboratory results from ChEMBL document CHEMBL1158142, “Bionectins A-C, epidithiodioxopiperazines with anti-MRSA activity, from Bionectra byssicola F120” (2006).
# The source made the active and inactive calls. No cut-off for these calls is given here.
# Experiments:
# Staphylococcus aureus [1] = assay: Antibacterial activity against methicillin-resistant Staphylococcus aureus CCARM3506 after 24 hrs; type: functional
# Staphylococcus aureus [2] = assay: Antibacterial activity against methicillin-sensitive Staphylococcus aureus CCARM3505 after 24 hrs; type: functional
# Staphylococcus aureus [3] = assay: Antibacterial activity against methicillin-resistant Staphylococcus aureus CCARM3167 after 24 hrs; type: functional
# Staphylococcus aureus [4] = assay: Antibacterial activity against Staphylococcus aureus RN4220 after 24 hrs; type: functional; conditions: RN4220, 24 h
# Staphylococcus aureus [5] = assay: Antibacterial activity against methicillin-sensitive Staphylococcus aureus CCARM3519 after 24 hrs; type: functional
# Staphylococcus aureus [6] = assay: Antibacterial activity against Staphylococcus aureus 503 after 24 hrs; type: functional
# Staphylococcus aureus [7] = assay: Antibacterial activity against Staphylococcus aureus RN4220 up to 100 ug/mL after 24 hrs; type: functional, organism-based
# Staphylococcus aureus [8] = assay: Antibacterial activity against methicillin-resistant Staphylococcus aureus CCARM3506 up to 100 ug/mL after 24 hrs; type: functional, organism-based
# Staphylococcus aureus [9] = assay: Antibacterial activity against methicillin-resistant Staphylococcus aureus CCARM3167 up to 100 ug/mL after 24 hrs; type: functional, organism-based
# Staphylococcus aureus [10] = assay: Antibacterial activity against methicillin-sensitive Staphylococcus aureus CCARM3505 up to 100 ug/mL after 24 hrs; type: functional, organism-based
# Staphylococcus aureus [11] = assay: Antibacterial activity against Staphylococcus aureus 503 up to 100 ug/mL after 24 hrs; type: functional, organism-based
# Staphylococcus aureus [12] = assay: Antibacterial activity against methicillin-sensitive Staphylococcus aureus CCARM3519 up to 100 ug/mL after 24 hrs; type: functional, organism-based
SMILES,MIC (Staphylococcus aureus [1]) [µg/mL],MIC (Staphylococcus aureus [2]) [µg/mL],MIC (Staphylococcus aureus [3]) [µg/mL],MIC (Staphylococcus aureus [4]) [µg/mL],MIC (Staphylococcus aureus [5]) [µg/mL],MIC (Staphylococcus aureus [6]) [µg/mL],Activity (Staphylococcus aureus [7]),Activity (Staphylococcus aureus [8]),Activity (Staphylococcus aureus [9]),Activity (Staphylococcus aureus [10]),Activity (Staphylococcus aureus [11]),Activity (Staphylococcus aureus [12])
CN1C(=O)[C@]23SS[C@H]1C(=O)N2[C@H]1Nc2ccccc2[C@@]1(c1c[nH]c2ccccc12)[C@@H]3O [BIONECTIN A],30,10,30,10,10,10,–,–,–,–,–,–
CN[C@H](CC(C)C)C(=O)N[C@H]1C(=O)N[C@@H](CC(N)=O)C(=O)N[C@H]2C(=O)N[C@H]3C(=O)N[C@H](C(=O)N[C@H](C(=O)O)c4cc(O)cc(O)c4-c4cc3ccc4O)[C@H](O)c3ccc(c(Cl)c3)Oc3cc2cc(c3O[C@@H]2O[C@H](CO)[C@@H](O)[C@H](O)[C@H]2O[C@H]2C[C@](C)(N)[C@H](O)[C@H](C)O2)Oc2ccc(cc2Cl)[C@H]1O [VANCOMYCIN],–,–,–,–,–,0.25,–,–,–,–,–,–
CC(O)[C@@]12SS[C@]3(C(=O)N1C)[C@@H](O)C1([C@@]45c6ccccc6N[C@@H]4N4C(=O)[C@]6(C(C)O)SS[C@]4(C(=O)N6C)[C@H]5O)c4ccccc4N[C@@H]1N3C2=O (stereo not given in full) [VERTICILLIN D],3,10,3,3,10,3,–,–,–,–,–,–
CC(O)[C@@]12SS[C@]3(C(=O)N1C)[C@@H](O)[C@]1(c4c[nH]c5ccccc45)c4ccccc4N[C@@H]1N3C2=O (stereo not given in full) [BIONECTIN B],10,30,10,30,30,30,–,–,–,–,–,–
CS[C@H]1C(=O)N2[C@H]3Nc4ccccc4[C@@]3(c3c[nH]c4ccccc34)[C@H](O)[C@]2(SC)C(=O)N1C,–,–,–,–,–,–,inactive,inactive,inactive,inactive,inactive,inactive
